PubChem BioAssay (NCI)
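Exposure lasted 48 hours, with cells grown in 96-well plates and compounds tested at five concentrations. GI50 = concentration required for 50% inhibition of growth. TGI: total growth inhibition.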

Tests used:
Assay in all cases: NCI-60 cell line screen, 48 h
[1] = system: BT-549 breast
[2] = system: NCI-H226 lung
[3] = system: SN12C renal
[4] = system: UO-31 renal
[5] = system: CAKI-1 renal
[6] = system: MALME-3M melanoma
[7] = system: SNB-19 CNS
[8] = system: OVCAR-4 ovarian
[9] = system: OVCAR-5 ovarian
[10] = system: SF-268 CNS

O=C(CCCc1c[nH]c2ccccc12)NC1CC(=O)c2c(Br)sc(Br)c21 (stereo not given)
GI50 [1]: 17.4 µM | TGI [1]: 37.1 µM | GI50 [2]: 19.6 µM | TGI [2]: 35.5 µM | GI50 [3]: 17.3 µM | TGI [3]: 33 µM | GI50 [4]: 22.2 µM | TGI [4]: 63.1 µM | GI50 [5]: 10.2 µM | TGI [5]: 31.6 µM | GI50 [6]: 16.4 µM | TGI [6]: 48 µM | GI50 [7]: 14.3 µM | TGI [7]: 29 µM | GI50 [8]: 12.8 µM | TGI [8]: 25.9 µM | GI50 [9]: 16 µM | TGI [9]: 31.7 µM | GI50 [10]: 10.5 µM | TGI [10]: 27.1 µM

CCCCCCCCCCCCCCCCCCNC(=O)[C@H]1CSC(c2ccc(OC)c(F)c2)N1 (stereo not given in full)
GI50 [1]: 1.71 µM | TGI [1]: 4.04 µM | GI50 [2]: 2.28 µM | TGI [2]: 6.86 µM | GI50 [3]: 1.52 µM | TGI [3]: 3.39 µM | GI50 [4]: > 32.8 µM | TGI [4]: > 48.4 µM | GI50 [5]: 3.98 µM | TGI [5]: 16.9 µM | GI50 [6]: > 26.2 µM | TGI [6]: > 45.5 µM | GI50 [7]: 21.2 µM | TGI [7]: > 52.1 µM | GI50 [8]: 14 µM | TGI [8]: > 41.3 µM | GI50 [9]: 3.55 µM | TGI [9]: > 33.4 µM | GI50 [10]: 1.73 µM | TGI [10]: 4.14 µM

C[C@H]1[C@H](OC(=O)CCC(=O)O)O[C@@H]2O[C@]3(C)CC[C@H]4[C@H](C)CC[C@@H]1[C@@]24OO3
GI50 [1]: 0.292 µM | TGI [1]: 4.55 µM | GI50 [2]: 0.956 µM | TGI [2]: 34.6 µM | GI50 [3]: 0.777 µM | TGI [3]: > 48.9 µM | GI50 [4]: 0.398 µM | TGI [4]: 7.38 µM | GI50 [5]: 0.532 µM | TGI [5]: 36 µM | GI50 [6]: 0.878 µM | TGI [6]: 31.6 µM | GI50 [7]: 1.62 µM | TGI [7]: > 100 µM | GI50 [8]: 1.28 µM | TGI [8]: 28.1 µM | GI50 [9]: 0.669 µM | TGI [9]: 20.5 µM | GI50 [10]: 1.04 µM | TGI [10]: 43.2 µM

CCOC(=O)c1cnc(SCc2ccc(Cl)c(Cl)c2)nc1N1CC1
GI50 [1]: 2.88 µM | TGI [1]: 13.6 µM | GI50 [2]: 5.01 µM | TGI [2]: 18.9 µM | GI50 [3]: 4.37 µM | TGI [3]: 21.2 µM | GI50 [4]: 1.87 µM | TGI [4]: 7.63 µM | GI50 [5]: 2.08 µM | TGI [5]: 6.98 µM | GI50 [6]: 3.33 µM | TGI [6]: 14.8 µM | GI50 [7]: 6.93 µM | TGI [7]: 23.8 µM | GI50 [8]: 3.17 µM | TGI [8]: 14 µM | GI50 [9]: 4.67 µM | TGI [9]: 19.4 µM | GI50 [10]: 3.05 µM | TGI [10]: 12.2 µM

COc1cc(C(=O)O)c([N+](=O)[O-])c(OC)c1OC
TGI [1]: > 100 µM | TGI [2]: > 100 µM | TGI [3]: > 100 µM | TGI [4]: > 100 µM | TGI [5]: > 100 µM | TGI [6]: > 100 µM | TGI [7]: > 100 µM | TGI [8]: > 100 µM | TGI [9]: > 100 µM | TGI [10]: > 100 µM

Cc1cc2c(C)c3cc(C)c(N)cc3nc2cc1N
GI50 [1]: 3.12 µM | TGI [1]: 11.6 µM | GI50 [2]: 0.864 µM | TGI [2]: 4.56 µM | GI50 [3]: 0.987 µM | TGI [3]: 9.71 µM | GI50 [4]: 2.02 µM | TGI [4]: 8.79 µM | GI50 [5]: 2.03 µM | TGI [5]: 8.66 µM | GI50 [6]: 1.72 µM | TGI [6]: 6.31 µM | GI50 [7]: 0.685 µM | TGI [7]: 10.2 µM | GI50 [8]: 1.1 µM | TGI [8]: 3.92 µM | GI50 [9]: 0.884 µM | TGI [9]: 5.34 µM | GI50 [10]: 0.604 µM | TGI [10]: 6.53 µM

N#C/C(=C\c1c(-c2ccccc2)[nH]c2ccccc12)C(=O)c1ccc(Cl)cc1
GI50 [1]: 5.83 µM | TGI [1]: 79.7 µM | GI50 [2]: 7.5 µM | TGI [2]: 47.2 µM | GI50 [3]: 6.91 µM | TGI [3]: > 78.7 µM | GI50 [4]: 5.85 µM | TGI [4]: 36.3 µM | GI50 [5]: 1.23 µM | TGI [5]: > 31.2 µM | GI50 [6]: 3.61 µM | TGI [6]: 30.2 µM | GI50 [7]: 3.07 µM | TGI [7]: 20.2 µM | GI50 [8]: 3.68 µM | TGI [8]: 22.8 µM | GI50 [9]: 8.58 µM | TGI [9]: 46.9 µM | GI50 [10]: 4.55 µM | TGI [10]: 24.8 µM
